Assay results: patent US20220177476A1, “Crystal Forms of (S)-4-(8-amino-3-(1-(but-2-ynoyl)-pyrrolidin-2-yl)imidazo[1,5-a]pyrazin-1-yl)-n-(pyridin-2-yl)benzamide” (Acerta Pharma B.V., priority 2015, published 2022)
Read-outs that look alike come from different tables or passages of the source.

Tests used:
[1] = Dynamic vapor sorption (DVS); type: physicochemical; settings: for hygroscopicity according to the European Pharmacopoeia (EP) classification: weight increase at 80% RH; for water content at the end of the DVS test: by weight
Experimental: A gravimetric vapor sorption study was run using a standard procedure. Samples were run using a dynamic vapor sorption (DVS) analyzer. Sample sizes were approximately 10 mg. A moisture adsorption-desorption isotherm was performed as outlined below.

[2] = Bulk and tapped density of salts; type: physicochemical; settings: 10 gram sample
[3] = Relative stability of solid forms (water activity, suspension equilibration, storage); type: physicochemical; settings: for Stability at Room Temperature: crystalline forms of the free base
Excerpt: Critical water activity is a measure of the relative thermodynamic stability of Form I in comparison to the trihydrate Form II. […] Suspension equilibration experiments in ethanol-water mixtures, each having a different water activity, affirmed this conclusion. Water activities included in the experiments were maintained at: about 0.35 (ethanol-water ratio of 95:5, PP502-P32), about 0.53 (ethanol-water ratio of 9:1, PP502-P33) and about 0.77 (ethanol-water ratio of 7:3, PP502-P34).
Because the DVS results of Form II indicate reversible moisture sorption-desorption behavior (see above), tests were performed to confirm that storage of the dehydrated Form II sample (i.e., Form IV) at about 60% RH would again lead to the trihydrate form (Form II). […]

[4] = for Solubility (mg/mL) after 24 hours equilibration: pure water at 25° C., pH 3.6-4.1
[5] = Aqueous solubility of salts after three hours equilibration without pH adjustment; type: physicochemical; settings: water
Experimental: Characterization of fumarate salt, maleate salt, phosphate salt and L-tartrate salt was conducted using ^1H NMR spectroscopy, TG-FTIR, DSC, dynamic vapor sorption, optical microscopy, high-performance liquid chromatography (HPLC) purity, laser diffraction, approximate bulk and tapped density, and aqueous solubility analytical techniques.

[6] = Aqueous solubility after equilibrating at 25° C. for three days (HPLC); type: physicochemical; settings: water, equilibrated at 25° C. for three days, HPLC of filtered solution
Experimental: Finally, Form II was tested with respect to solubilities in various water-solvent mixtures and non-aqueous solvents. […] High-performance liquid chromatography (HPLC) was used to determine the concentration of Form II in the filtered solution at approximately 14 μg/mL, which translates into a critical water activity (aw) of about 0.59.

[7] = Plasma exposure after single oral administration in fasted beagle dogs; type: in vivo; settings: nine fasted beagle dogs, single oral administration of 6 mg/kg, oral capsule
Experimental: The plasma exposure of Forms I and II of the free base of Formula (1) were compared in nine fasted beagle dogs after a single oral administration of 6 mg/kg of either form using batches with a similar particle size distribution. The experiment was performed in 5 weekly phases, with the Form II phase last. […] There was a good in vitro in vivo correlation for the dissolution rates of Form 1 and Form II, and the performance of each form of Formula (1) when delivered by oral capsule to dogs.

[8] = Intrinsic dissolution rate (paddle over stationary disc); type: physicochemical
Experimental: The intrinsic dissolution rate (IDR) was measured for Forms I and II of the free base of Formula (1). IDR was measured using a paddle over stationary disc equipped dissolution apparatus with concentration determined using liquid chromatographic analysis against a standard. […] Form I has an IDR of 6.8 mg/cm^2/min in simulated gastric fluid (SGF) (pH 1.2) and an IDR of 0.44 mg/cm^2/min in pH 2.5 HCl/NaCl buffer. Form II has an IDR of 5.4 mg/cm^2/min in SGF and an IDR of 0.35 mg/cm^2/min in pH 2.5 HCl/NaCl buffer.

CC#CC(=O)N1CCC[C@H]1c1nc(-c2ccc(C(=O)Nc3ccccn3)cc2)c2c(N)nccn12 [amorphous Formula (1), (S)-4-(8-amino-3-(1-(but-2-ynoyl)pyrrolidin-2-yl)imidazo[1,5-α]pyrazin-1-yl)-N-(pyridin-2-yl)benzamide]
total mass gained up to 95% RH ([1]; DVS): approximately 13%
total weight gain observed between 0% RH and 80% RH ([1]; DVS): about 6%
hygroscopicity according to the European Pharmacopoeia (EP) classification ([1]; DVS): hygroscopic (hygroscopic: ≥2% and <15%)

CC#CC(=O)N1CCC[C@H]1c1nc(-c2ccc(C(=O)Nc3ccccn3)cc2)c2c(N)nccn12.O=C(O)C(O)C(O)C(=O)O [L-Tartrate, (S)-4-(8-amino-3-(1-(but-2-ynoyl)pyrrolidin-2-yl)imidazo[1,5-α]pyrazin-1-yl)-N-(pyridin-2-yl)benzamide L-tartrate]
Behavior in DVS: Δm (20-80% RH) [1]: ~0.7% (20-80% RH)
maximum water content (saturation) at about 95% RH ([1]; DVS): approximately 5.4%
water content at 50% RH ([1]; DVS): about 4.8%
water content change between 20% and 80% RH ([1]; DVS): about 0.7%
Bulk density [2]: 0.29 g/mL
Tapped density [2]: 0.50 g/mL

CC#CC(=O)N1CCC[C@H]1c1nc(-c2ccc(C(=O)Nc3ccccn3)cc2)c2c(N)nccn12.O=C(O)CC(O)(CC(=O)O)C(=O)O [citrate salt, (S)-4-(8-amino-3-(1-(but-2-ynoyl)pyrrolidin-2-yl)imidazo[1,5-α]pyrazin-1-yl)-N-(pyridin-2-yl)benzamide citrate]
water content at the end of the DVS test ([1]; DVS): about 7.5%
form after suspension equilibration in water ([3]; water at 25° C. for 24 hours): conversion to Form III of the free base of Formula (1)

CC#CC(=O)N1CCC[C@H]1c1nc(-c2ccc(C(=O)Nc3ccccn3)cc2)c2c(N)nccn12.O=C(O)/C=C/C(=O)O [Fumarate, (S)-4-(8-amino-3-(1-(but-2-ynoyl)pyrrolidin-2-yl)imidazo[1,5-α]pyrazin-1-yl)-N-(pyridin-2-yl)benzamide fumarate]
Behavior in DVS: Δm (20-80% RH) [1]: ~0.8% (20-80% RH)
maximum water content (saturation) at about 95% RH ([1]; DVS): approximately 6%
water content change between 20% and 80% RH ([1]; DVS): about 0.8%
Solubility (mg/mL) after 24 hours equilibration [4]: 2.1 mg/mL
Solubility (3 hours) [5]: ~1800 µg/mL
Bulk density [2]: 0.45 g/mL
Tapped density [2]: 0.57 g/mL

CC#CC(=O)N1CCC[C@H]1c1nc(-c2ccc(C(=O)Nc3ccccn3)cc2)c2c(N)nccn12 [Form VIII, (S)-4-(8-amino-3-(1-(but-2-ynoyl)pyrrolidin-2-yl)imidazo[1,5-α]pyrazin-1-yl)-N-(pyridin-2-yl)benzamide]
Stability at Room Temperature [3]: metastable

CC#CC(=O)N1CCC[C@H]1c1nc(-c2ccc(C(=O)Nc3ccccn3)cc2)c2c(N)nccn12 [Form VI, (S)-4-(8-amino-3-(1-(but-2-ynoyl)pyrrolidin-2-yl)imidazo[1,5-α]pyrazin-1-yl)-N-(pyridin-2-yl)benzamide]
Stability at Room Temperature [3]: metastable

CC#CC(=O)N1CCC[C@H]1c1nc(-c2ccc(C(=O)Nc3ccccn3)cc2)c2c(N)nccn12.O=C(O)C(=O)O [oxalate salt, (S)-4-(8-amino-3-(1-(but-2-ynoyl)pyrrolidin-2-yl)imidazo[1,5-α]pyrazin-1-yl)-N-(pyridin-2-yl)benzamide oxalate]
maximum water content (saturation) at about 95% RH ([1]; DVS): about 6.5%
water content at 50% RH ([1]; DVS): about 5.5%

CC#CC(=O)N1CCC[C@H]1c1nc(-c2ccc(C(=O)Nc3ccccn3)cc2)c2c(N)nccn12 [Form VII, (S)-4-(8-amino-3-(1-(but-2-ynoyl)pyrrolidin-2-yl)imidazo[1,5-α]pyrazin-1-yl)-N-(pyridin-2-yl)benzamide]
Stability at Room Temperature [3]: metastable

CC#CC(=O)N1CCC[C@H]1c1nc(-c2ccc(C(=O)Nc3ccccn3)cc2)c2c(N)nccn12.O=P(O)(O)O [Phosphate, (S)-4-(8-amino-3-(1-(but-2-ynoyl)pyrrolidin-2-yl)imidazo[1,5-α]pyrazin-1-yl)-N-(pyridin-2-yl)benzamide phosphate]
Behavior in DVS: Δm (20-80% RH) [1]: ~0.7% (20-80% RH)
maximum water content (saturation) at about 95% RH ([1]; DVS): approximately 6.6%
Solubility (mg/mL) after 24 hours equilibration [4]: 15.0 mg/mL
Solubility (3 hours) [5]: 9800 µg/mL
Bulk density [2]: 0.33 g/mL
Tapped density [2]: 0.48 g/mL

CC#CC(=O)N1CCC[C@H]1c1nc(-c2ccc(C(=O)Nc3ccccn3)cc2)c2c(N)nccn12.O=C(O)/C=C\C(=O)O [Maleate, (S)-4-(8-amino-3-(1-(but-2-ynoyl)pyrrolidin-2-yl)imidazo[1,5-α]pyrazin-1-yl)-N-(pyridin-2-yl)benzamide maleate]
Behavior in DVS: Δm (20-80% RH) [1]: fumarate, Δm~0.7%
maximum water content (saturation) at about 95% RH ([1]; DVS): approximately 5.8%
water content change between 20% and 80% RH ([1]; DVS): about 0.5%
solubility ([4]; 0.1 N HCl, Sigma #71763, pH after 24 hours 1.8): 37000 µg/mL
solubility ([4]; borate buffer (sample pH9), pH after 24 hours 4.7): 1200 µg/mL
solubility ([4]; buffer pH 5, pH after 24 hours 4.8): 4300 µg/mL
solubility ([4]; citrate buffer pH 3, pH after 24 hours 3.2): 8000 µg/mL
solubility ([4]; phosphate buffer pH 7, KH2PO4 (sample pH6.8), pH after 24 hours 4.8): 1200 µg/mL
solubility ([4]; phosphate buffer pH 7, KH2PO4 (sample pH7.4), pH after 24 hours 5.0): 800 µg/mL
Solubility (mg/mL) after 24 hours equilibration [4]: 2.3 mg/mL
Solubility (3 hours) [5]: 2200 µg/mL
Bulk density [2]: 0.35 g/mL
Tapped density [2]: 0.45 g/mL

CC#CC(=O)N1CCC[C@H]1c1nc(-c2ccc(C(=O)Nc3ccccn3)cc2)c2c(N)nccn12 [Form II, (S)-4-(8-amino-3-(1-(but-2-ynoyl)pyrrolidin-2-yl)imidazo[1,5-α]pyrazin-1-yl)-N-(pyridin-2-yl)benzamide]
maximum water content (saturation) at about 95% RH ([1]; DVS): about 10.4%
total weight gain observed between 0% RH and 80% RH ([1]; DVS): about 10%
hygroscopicity according to the European Pharmacopoeia (EP) classification ([1]; DVS): hygroscopic (hygroscopic: ≥2% and <15%)
aqueous solubility [6]: approximately 14 μg/mL
Cmax (maximum concentration) [7]: lower Cmax (maximum concentration) than Form I in all dogs
area under the plasma drug concentration-time curve (AUC) [7]: lower AUC than Form I in all dogs
intrinsic dissolution rate (IDR) ([8]; pH 2.5 HCl/NaCl buffer): 0.35 mg/cm^2/min
intrinsic dissolution rate (IDR) ([8]; simulated gastric fluid (SGF) (pH 1.2)): 5.4 mg/cm^2/min
critical water activity (aw) ([3]; Form I versus trihydrate Form II, room temperature, from aqueous solubilities): about 0.59
relative thermodynamic stability of Form I and Form II ([3]; room temperature, depending on water activity): above this value Form II is more stable

CC#CC(=O)N1CCC[C@H]1c1nc(-c2ccc(C(=O)Nc3ccccn3)cc2)c2c(N)nccn12 [Form IV, (S)-4-(8-amino-3-(1-(but-2-ynoyl)pyrrolidin-2-yl)imidazo[1,5-α]pyrazin-1-yl)-N-(pyridin-2-yl)benzamide]
Stability at Room Temperature [3]: metastable
form after storage at 60% RH for three days (PXRD) ([3]; dehydrated Form II sample): does revert to Form II

CC#CC(=O)N1CCC[C@H]1c1nc(-c2ccc(C(=O)Nc3ccccn3)cc2)c2c(N)nccn12 [Form V, (S)-4-(8-amino-3-(1-(but-2-ynoyl)pyrrolidin-2-yl)imidazo[1,5-α]pyrazin-1-yl)-N-(pyridin-2-yl)benzamide]
Stability at Room Temperature [3]: metastable

CC#CC(=O)N1CCC[C@H]1c1nc(-c2ccc(C(=O)Nc3ccccn3)cc2)c2c(N)nccn12 [Form III, (S)-4-(8-amino-3-(1-(but-2-ynoyl)pyrrolidin-2-yl)imidazo[1,5-α]pyrazin-1-yl)-N-(pyridin-2-yl)benzamide]
maximum water content (saturation) at about 95% RH ([1]; DVS): about 8.5%
total weight gain observed between 0% RH and 80% RH ([1]; DVS): about 8%
hygroscopicity according to the European Pharmacopoeia (EP) classification ([1]; DVS): hygroscopic (hygroscopic: ≥2% and <15%)
Stability at Room Temperature [3]: metastable

CC#CC(=O)N1CCC[C@H]1c1nc(-c2ccc(C(=O)Nc3ccccn3)cc2)c2c(N)nccn12.O=C(O)c1cc(O)ccc1O [gentisate salt, (S)-4-(8-amino-3-(1-(but-2-ynoyl)pyrrolidin-2-yl)imidazo[1,5-α]pyrazin-1-yl)-N-(pyridin-2-yl)benzamide gentisate]
water content at the end of the DVS test ([1]; DVS): 5.2%
